SMILES strings stand for the structures.

Broadly, the IC50 is the concentration needed to halve the response being measured.

T1 sequence (P27487 whole entry): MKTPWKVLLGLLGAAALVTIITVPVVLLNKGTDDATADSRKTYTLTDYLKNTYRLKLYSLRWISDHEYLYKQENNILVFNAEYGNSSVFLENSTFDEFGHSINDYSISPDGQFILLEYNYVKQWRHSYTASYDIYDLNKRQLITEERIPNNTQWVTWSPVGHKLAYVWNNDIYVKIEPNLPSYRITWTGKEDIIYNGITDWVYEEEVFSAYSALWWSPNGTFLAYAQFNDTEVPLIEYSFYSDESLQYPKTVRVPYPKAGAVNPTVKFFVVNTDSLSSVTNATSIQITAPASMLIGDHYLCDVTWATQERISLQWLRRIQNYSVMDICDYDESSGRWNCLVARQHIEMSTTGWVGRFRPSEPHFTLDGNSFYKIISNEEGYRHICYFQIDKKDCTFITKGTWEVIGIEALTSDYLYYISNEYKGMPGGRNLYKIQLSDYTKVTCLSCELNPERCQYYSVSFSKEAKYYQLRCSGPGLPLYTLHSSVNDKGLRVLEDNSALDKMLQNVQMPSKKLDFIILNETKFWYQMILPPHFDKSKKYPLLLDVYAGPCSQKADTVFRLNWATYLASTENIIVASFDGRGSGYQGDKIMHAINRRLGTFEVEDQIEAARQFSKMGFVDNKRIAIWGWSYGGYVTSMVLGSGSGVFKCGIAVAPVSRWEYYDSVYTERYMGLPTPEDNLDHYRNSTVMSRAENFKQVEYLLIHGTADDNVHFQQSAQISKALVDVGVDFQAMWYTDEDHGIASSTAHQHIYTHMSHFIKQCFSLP

Test system in the first series: not listed separately
The experiment in a line: Tolerability after oral administration to rats (behavior). It is filed as in vivo. Particulars: 10 mg/kg.
Regarding `CC#CCn1c(N2CCC[C@@H](N)C2)nc2c1c(=O)n(CC(=O)c1ccccc1NC(=O)C1CC1)c(=O)n2C` [Example 1 (5), 1-(2-{2-[(cyclopropylcarbonyl)amino]phenyl}-2-oxoethyl)-3-methyl-7-(2-butyn-1-yl)-8-((R)-3-aminopiperidin-1-yl)xanthine], the “changes in the animals' behavior” value is recorded as “no changes in the animals' behavior could be detected”.

The next series has as its target T1, DPP-IV (Homo sapiens, UniProt P27487).
T1 construct: an extract of human colon carcinoma cell line Caco-2 is used as the DPP-IV source; endogenous in cells; host or cells: Caco-2 (human colon carcinoma), differentiated to induce DPP-IV expression
The experiment in a line: DPP-IV assay with Caco-2 cell extract as DPP-IV source. It is filed as biochemical. Particulars: extract of human colon carcinoma cell line Caco-2; AFC substrate 100 μM; 60 minutes at ambient temperature; read-out: DPP-IV inhibition IC50. How it is done:
The differentiation of the cells in order to induce the DPP-IV expression was carried out as described by Reiher et al., “Increased Expression of Intestinal Cell Line Caco-2”, Proc. Natl. Acad. Sci. Vol. 90, pages 5757-5761 (1993). The cell extract was obtained from cells solubilized in a buffer (10 mM Tris HCl, 0.15 M NaCl, 0.04 t.i.u. aprotinin, 0.5% Nonidet P-40, pH 8.0) by centrifuging at 35,000 g for 30 minutes at 4° C. (to remove cell debris).
The DPP-IV assay was carried out as follows:
50 μL substrate solution (AFC; AFC is amido-4-trifluoromethylcoumarin), final concentration 100 μM, were placed in black microtitre plates. 20 μL of assay buffer (final concentrations 50 mM Tris HCl pH 7.8, 50 mM NaCl, 1% DMSO) was pipetted in. The reaction was started by adding 30 μL of solubilized Caco-2 protein (final concentration 0.14 μg of protein per well). The test substances to be investigated were typically added prediluted in 20 μL, and the volume of assay buffer was then reduced accordingly. The reaction was carried out at ambient temperature, incubating for 60 minutes. Then the fluorescence was measured in a Victor 1420 Multilabel Counter, the excitation wavelength being 405 nm and the emission wavelength being 535 nm. Blank readings (corresponding to 0% activity) were obtained in mixtures without any Caco-2 protein (volume replaced by assay buffer), control values (corresponding to 100% activity) were obtained in mixtures with no substance added. […]
On to `CC(C)=CCn1c(N2CCCC(N)C2)nc2c1c(=O)n(CC(=O)c1ccccc1NC(=O)C1CC1)c(=O)n2C` (stereo not drawn) [1 (1), 1-(2-{2-[(cyclopropylcarbonyl)amino]phenyl}-2-oxoethyl)-3-methyl-7-(3-methyl-2-buten-1-yl)-8-(3-aminopiperidin-1-yl)xanthine], for which the concentration for half-maximal inhibition (IC50) turned out to be 11 nM. On the same count and under the same terms, under `CC#CCn1c(N2CCCC(N)C2)nc2c1c(=O)n(CC(=O)c1ccccc1NC=O)c(=O)n2C` (stereo not drawn) [1 (2), 1-[2-(2-formylaminophenyl)-2-oxoethyl]-3-methyl-7-(2-butyn-1-yl)-8-(3-aminopiperidin-1-yl)xanthine] stands 3 nM; under `C/C=C/Cn1c(N2CCC[C@@H](N)C2)nc2c1c(=O)n(CC(=O)c1ccccc1NC(=O)C1CC1)c(=O)n2C` [1 (3), 1-(2-{2-[(cyclopropylcarbonyl)amino]phenyl}-2-oxoethyl)-3-methyl-7-((E)-2-buten-1-yl)-8-((R)-3-aminopiperidin-1-yl)xanthine], 4 nM. With `C/C=C/Cn1c(N2CCC[C@H](N)C2)nc2c1c(=O)n(CC(=O)c1ccccc1NC(=O)C1CC1)c(=O)n2C` [1 (4), 1-(2-{2-[(cyclopropylcarbonyl)amino]phenyl}-2-oxoethyl)-3-methyl-7-((E)-2-buten-1-yl)-8-((S)-3-aminopiperidin-1-yl)xanthine], the IC50 is 3 nM. Still for that read-out and setting: under `CC#CCn1c(N2CCC[C@H](N)C2)nc2c1c(=O)n(CC(=O)c1ccccc1NC(=O)C1CC1)c(=O)n2C` [1 (6), 1-(2-{2-[(cyclopropylcarbonyl)amino]phenyl}-2-oxoethyl)-3-methyl-7-(2-butyn-1-yl)-8-((S)-3-aminopiperidin-1-yl)xanthine] stands 5 nM.

Turning to `C/C=C/Cn1c(N2CCCC(N)C2)nc2c1c(=O)n(CC(=O)c1ccccc1NC(=O)c1ccccn1)c(=O)n2C` (stereo not drawn) [1 (7), 1-[2-(2-{[(pyridin-2-yl)carbonyl]amino}phenyl)-2-oxoethyl]-3-methyl-7-((E)-2-buten-1-yl)-8-(3-aminopiperidin-1-yl)xanthine], the half-inhibitory concentration (IC50) came to 8 nM. Same read-out and setting: as for `CC#CCn1c(N2CCC[C@@H](N)C2)nc2c1c(=O)n(CC(=O)c1ccccc1NC(=O)C1CC1)c(=O)n2C` [Example 1 (5), 1-(2-{2-[(cyclopropylcarbonyl)amino]phenyl}-2-oxoethyl)-3-methyl-7-(2-butyn-1-yl)-8-((R)-3-aminopiperidin-1-yl)xanthine], the figure is 3 nM; as for `CC(C)=CCn1c(N2CCCC(N)C2)nc2c1c(=O)n(CC(=O)c1ccccc1NC=O)c(=O)n2C` (stereo not drawn) [Example 1, 1-[2-(2-formylaminophenyl)-2-oxoethyl]-3-methyl-7-(3-methyl-2-buten-1-yl)-8-(3-aminopiperidin-1-yl)xanthine], 5 nM.

The record behind these values is patent publication US7838529B2, “Xanthine derivates, their preparation and their use in pharmaceutical compositions” (Boehringer Ingelheim International GmbH, priority 2002, dated 2010).
